Where two headings read alike, the source gives them in different places.
Tests used:
Assay type in all cases: cell-based
[1] = Rat L6 cell proliferation inhibition test; conditions: read-out: EC50 cytotoxicity L6; for EC50 at 72 h: L6 cells (rat skeletal myoblasts), Table 1, Alamar Blue
[2] = tested on: Leishmania donovani (MHOM/ET/67/L82 strain); assay: Leishmania protozoa proliferation inhibition screening test; conditions: for Selective toxicity: EC50 rat L6 cells / EC50 leishmania protozoa; for EC50: Leishmania donovani, read-out: EC50 Leishmania donovani
Method: In this experiment, Leishmania donovani (MHOM/ET/67/L82 strain) was used. The protozoa were successively cultured in Syrian Golden hamsters to obtain amastigote. The medium used in the experiment was SM medium having heat-treated fetal bovine serum 10% added, and pH prepared to 5.4. The culture was conducted under CO2 concentration 5% and temperature 37° C.
Either the compound of the invention or a positive control (miltefosine) was dissolved into DMSO to prepare test solution having predefined concentration. To each well of a 96-well culture plate, medium containing predetermined number of protozoa was added and the culture was pre-treated. The concentration of amastigote was determined by CASY cell analyze system (Scharfe GMBH Co., Germany). Subsequently, either test solution containing compound of the invention in predefined concentration or DMSO without compound was added. The test solution was duplicated.
The plate was cultured in an incubator for 72 hours, and the proliferation inhibition activity was examined. The activity was determined as follows. To each well, 10 μL Alamar blue aqueous solution was added, then cultured again for 2 hours. Then the culture plate was mounted on a fluorescence microplate reader (Spectramax Gemeni XS; Molecular Devices Corporation, U.S), and irradiated 536 nm excitation wavelength to determine […] at 588 nm. The leishmania infection rate of the sample containing the test compound and that of the control sample was calculated.
(§1) Using the protozoa infection rate thus obtained, the proliferation inhibition rate was calculated according to the following equation to determine 50% proliferation inhibition concentration (EC50).
(§2) Proliferation inhibition rate(%)={1−(b−a)/(c−a)}×100
a: initial infection rate b: infection rate of test compound solution c: infection rate of the control

[3] = tested on: Trypanosoma cruzi (Tulahuen C2C4 strain); assay: American trypanosoma protozoa proliferation inhibition screening test; conditions: for Selective toxicity: EC50 rat L6 cells / EC50 American trypanosoma protozoa; for EC50: Trypanosoma cruzi, read-out: EC50 Trypanosoma cruzi
Method: In this experiment, amastigote and trypomastigote of Trypanosoma cruzi (Tulahuen C2C4 strain) infected to rat L6 cells were used. The medium used in the experiment was prepared as follows: to RPMI 1640 medium containing L6 cells, L-glutamine (200 mM) and fetal bovine serum was added to achieve concentration of 1% and 10%, respectively. The culture was conducted under CO2 concentration 5% and temperature 37° C.
Either the compound of the invention or a positive control (benznidazole) was dissolved into DMSO to prepare test solution having predefined concentration. To each well in a 96-well culture plate, medium containing 5×10^3 protozoa was added and precultured for 48 hours. After replacing the medium, either the test solution containing compound of the invention in predefined concentration or DMSO without compound was added. The test solution was duplicated.
The plate was cultured in an incubator for 96 hours, and the proliferation inhibition activity was examined. The activity was determined as follows. To each well, 50 μL CPRG/Nonidet was added, then left for 2 to 6 hours. Then the culture plate was mounted on an absorption microplate reader to determine absorption at 540 nm. The trypanosoma infection rate of the sample containing the test compound and that of the control sample was calculated.
as §1, §2
a: initial infection rate b: infection rate of the test compound solution c: infection rate of the control

[4] = amastigote, 72 hours, Alamar blue
[5] = Tulahuen C2C4 strain in rat L6 cells, 96 hours, CPRG/Nonidet

SMILES: CCN1C(=O)/C(=C2\Sc3ccccc3N2C)S/C1=N\c1sc2cc(Cl)ccc2[n+]1C [Compound A-1]
- EC50 at 72 h [1]: 37.9 µg/mL
- Selective toxicity [2]: 299
- EC50 [2, 4]: 0.127 µg/mL

SMILES: CCN1C(=O)/C(=C2\C=Cc3ccccc3N2C)S/C1=N\c1sc2cc(Cl)ccc2[n+]1C [Compound A-2]
- EC50 at 72 h [1]: 5.5 µg/mL
- Selective toxicity [3]: 18
- EC50 [3, 5]: 0.31 µg/mL
- Selective toxicity [2]: 2800
- EC50 [2, 4]: 0.002 µg/mL

SMILES: CCN1C(=O)/C(=c2/s/c(=C3/C=CC=CN3C)c(=O)n2CC)S/C1=N\c1sc2cc(Cl)ccc2[n+]1C [Compound B-2]
- EC50 at 72 h [1]: 27 µg/mL
- EC50 [2, 4]: 0.249 µg/mL

SMILES: CCN1C(=O)/C(=c2/s/c(=C3/SCCN3C)c(=O)n2CC)S/C1=N\c1sc2cc(Cl)ccc2[n+]1C [Compound B-12]
- EC50 at 72 h [1]: 6.9 µg/mL
- Selective toxicity [3]: 7
- EC50 [3, 5]: 0.98 µg/mL
- Selective toxicity [2]: 41
- EC50 [2, 4]: 0.167 µg/mL

SMILES: CCN1C(=O)/C(=c2/s/c(=C3/C=CC=CN3C)c(=O)n2CC)S/C1=N\c1sc2cc(OC)ccc2[n+]1C [Compound B-28]
- EC50 Trypanosoma cruzi [3, 5]: 0.314 µg/mL
- EC50 Leishmania donovani [2, 4]: 0.037 µg/mL

SMILES: CCN1C(=O)/C(=c2/s/c(=C3/SCCN3C)c(=O)n2CC)S/C1=N\c1sc2cc(OC)ccc2[n+]1C [Compound B-29]
- EC50 Trypanosoma cruzi [3, 5]: 0.091 µg/mL
- EC50 Leishmania donovani [2, 4]: >0.04 µg/mL

SMILES: CCN1C(=O)/C(=c2/s/c(=C3/C=CC=CN3C)c(=O)n2CC)S/C1=N\c1sc2ccccc2[n+]1C [Compound B-30]
- EC50 Trypanosoma cruzi [3, 5]: 0.74 µg/mL
- EC50 Leishmania donovani [2, 4]: 0.11 µg/mL

SMILES: CCN1C(=O)/C(=c2/s/c(=C3/SCCN3C)c(=O)n2CC)S/C1=N\c1sc2cc(F)ccc2[n+]1C [Compound B-33]
- EC50 Trypanosoma cruzi [3, 5]: 0.66 µg/mL
- EC50 Leishmania donovani [2, 4]: 0.2015 µg/mL

SMILES: CCn1c(=O)/c(=C2\SCCN2C)s/c1=C1\S/C(=N\c2sc3cc(Cl)ccc3[n+]2C)N(C(C)C)C1=O [Compound B-37]
- EC50 at 72 h [1]: 1.44 µg/mL
- Selective toxicity [3]: 3
- EC50 [3, 5]: 0.479 µg/mL

SMILES: CN1/C(=c2\s/c(=C\c3cccc[n+]3CCC(=O)O)n(CC3CO3)c2=O)Sc2ccccc21 (stereo not drawn) [Compound S-3, reference compound]
- EC50 ([1]; Table 1, rat L6 cells, 72 hours, Alamar Blue): > 90 µg/mL
- EC50 ([3]; TULAHUEN, L6, 96 h): > 30 µg/mL
- Selective toxicity [2]: >170
- EC50 ([2]; 72 h): 0.53 µg/mL

Reference: US20090076067A1, “PHARMACEUTICAL COMPOSITION COMPRISING AZARHODACYANINE COMPOUND AS ACTIVE INGREDIENT” (priority 2005, published 2009)
